Source: US6740650B2, “Heterocyclic cytotoxic agents” (Rutgers, The State University of New Jersey, priority 2002, dated 2004)

Columns and labels:
[1] = target: T1, human topoisomerase I (Homo sapiens, UniProt P11387); assay: Test A. Topoisomerase I-mediated DNA cleavage assay; assay type: biochemical; conditions: concentration relative to 2,3-dimethoxy-8,9-methylenedioxybenzo[i]phenanthridine (=1.0) producing same cleavage (approx. 10% DNA fragmentation); 30 min, 37° C.
T1 construct: unnamed fusion partner (recombinant fusion protein, T7 expression system); made in house; host or cells: E. coli
T1 sequence (P11387 1-765): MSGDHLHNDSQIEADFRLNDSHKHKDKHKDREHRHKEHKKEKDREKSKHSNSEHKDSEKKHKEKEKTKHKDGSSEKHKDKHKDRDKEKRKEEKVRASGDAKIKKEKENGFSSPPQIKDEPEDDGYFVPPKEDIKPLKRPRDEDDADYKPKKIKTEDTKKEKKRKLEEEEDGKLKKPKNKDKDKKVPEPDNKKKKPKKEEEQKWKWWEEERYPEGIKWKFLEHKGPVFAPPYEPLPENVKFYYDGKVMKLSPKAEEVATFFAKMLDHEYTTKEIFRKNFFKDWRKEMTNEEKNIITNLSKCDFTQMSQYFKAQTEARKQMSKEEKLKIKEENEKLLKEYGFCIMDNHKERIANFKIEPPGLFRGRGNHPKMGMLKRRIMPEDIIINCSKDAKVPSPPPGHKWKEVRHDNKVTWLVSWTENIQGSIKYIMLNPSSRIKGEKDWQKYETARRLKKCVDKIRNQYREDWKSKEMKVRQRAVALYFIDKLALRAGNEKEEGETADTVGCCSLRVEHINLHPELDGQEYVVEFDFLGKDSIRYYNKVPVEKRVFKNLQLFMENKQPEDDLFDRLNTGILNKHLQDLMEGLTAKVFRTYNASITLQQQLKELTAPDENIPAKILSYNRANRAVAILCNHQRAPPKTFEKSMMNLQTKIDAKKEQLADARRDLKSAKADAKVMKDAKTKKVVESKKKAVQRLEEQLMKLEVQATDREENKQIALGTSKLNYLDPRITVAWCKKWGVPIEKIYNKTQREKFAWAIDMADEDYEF
From the text: Test A. Topoisomerase I-mediated DNA Cleavage Assay
Human topoisomerase I was expressed in E. Coli and isolated as a recombinant fusion protein using a T7 expression system as described previously (Makhey, D. et al., Bioorg. Med. Chem., 2000, 8, 1-11). DNA topoisomerase I was purified from calf thymus gland as reported previously (Maniatis, T., et al., J. Molecular Cloning, a Laboratory Manual, Cold Spring Harbor Laboratory, Cold Spring Harbor, N.Y., 149-185). Plasmid YepG was also purified by the alkali lysis method followed by phenol deproteination and CsCl/ethidium isopycnic centrifugation method as described (Maniatis, T.; Fritsch, E. F.; Sambrook, J. Molecular Cloning, a Laboratory Manual; Cold Spring Harbor Laboratory: Cold Spring Harbor, N.Y. 1982; pp 149-185).^102 The end-labeling of the plasmid was accomplished by digestion with a restriction enzyme followed by end-filling with Klenow polymerase as previously described (Liu, L. F.; Rowe, T. C.; Yang, L.; Tewey, K. M.; Chen, G. L. “Cleavage of DNA by mammalian topoisomerase II,” J Biol. Chem. 1983, 258, 15365).^103 Cleavage assays were performed as previously reported (B. Gatto et al. Cancer Res., 1996, 56, 2795-2800).^13 The drug and the DNA in presence of topoisomerase I was incubated for 30 minutes at 37° C. After development of the gels, typically 24-hour exposure was used to obtain autoradiograms outlining the extent of DNA fragmentation. Topoisomerase I-mediated DNA cleavage values are reported as REC, Relative Effective Concentration, i.e. concentrations relative to 2,3-dimethoxy-8,9-methylenedioxybenzo[i]phenanthridine, whose value is arbitrarily assumed as 1.0, that are able to produce the same cleavage on the plasmid DNA in the presence of human topoisomerase I. Relative potency was based upon the relative amount of drug needed to induce approximately 10% DNA fragmentation. Assays were performed under the direction of Dr. L. F. Liu, Department of Pharmacology, The University of Medicine and Dentistry of New Jersey, Robert Wood Johnson Medical School, Piscataway, N.J. Data from Test A for representative compounds of the invention is shown in Table 1.

[2] = tested on: human lymphoblast RPMI 8402; assay: MTT-microtiter plate tetrazolinium cytotoxicity assay, RPMI 8402; assay type: cell-based; conditions: continuous exposure 3-4 days
Experimental: (§1) Test B. Inhibition of Cell Growth: MTT-microtiter Plate Tetrazolinium Cytotoxicity Assay (RPMI 8402, CPT-K5, U937, U937/CR Cells)
(§2) The cytotoxicity was determined using the MTT-microtiter plate tetrazolinium cytotoxicity assay (MTA) (See Chen A. Y. et al. Cancer Res. 1993, 53, 1332; Mosmann, T. J., J. Immunol. Methods 1983, 65, 55; and Carmichael, J. et al. Cancer Res. 1987, 47, 936). The human lymphoblast RPMI 8402 and its camptothecin-resistant variant cell line, CPT-K5 were provided by Dr. Toshiwo Andoh (Anchi Cancer Research Institute, Nagoya, Japan) (see Andoh, T.; Okada, K. “Drug resistance mechanisms of topoisomerase I drugs,” Adv. in Pharmacology 1994, 29B, 93). Human U-937 myeloid leukemia cells and U-937/CR cells were described by Rubin et al., J. Biol. Chem., 269, 2433-2439 (1994). The cytotoxicity assay was performed by using 96-well microtiter plates using 2000 cells/well, in […] of growth medium. Cells were grown in suspension at 37° C. in 5% CO2 and maintained by regular passage in RPMI medium supplemented with 10% heat-inactivated fetal bovine serum, L-glutamine (2 mM), penicillin (100U/mL), and streptomycin (0.1 mg/mL). For determination of IC50, cells were exposed continuously for 3-4 days to varying concentrations of drug, and MTT assays were performed at the end of the fourth day. […] All assays were performed at least twice in 6 replicate wells. All assays were performed under the direction of Dr. L. F. Liu, Department of Pharmacology, The University of Medicine and Dentistry of New Jersey, Robert Wood Johnson Medical School, Piscataway, N.J. Representative data is shown in Tables 2 and 3.

[3] = tested on: CPT-K5 (camptothecin-resistant variant of RPMI 8402); assay: MTT-microtiter plate tetrazolinium cytotoxicity assay, CPT-K5; assay type: cell-based; conditions: Homo sapiens, continuous exposure 3-4 days
Experimental: as §1, §2

[4] = tested on: Human U-937 myeloid leukemia cells; assay: MTT-microtiter plate tetrazolinium cytotoxicity assay, U937; assay type: cell-based; conditions: continuous exposure 3-4 days
Experimental: as §1, §2

[5] = tested on: U-937/CR cells; assay: MTT-microtiter plate tetrazolinium cytotoxicity assay, U937/CR; assay type: cell-based; conditions: Homo sapiens, continuous exposure 3-4 days
Experimental: as §1, §2

[6] = tested on: KB3-1 (oral); assay: MTT-microtiter plate tetrazolinium cytotoxicity assay, KB3-1; assay type: cell-based
[7] = tested on: KBV-1 (mdr-1); assay: MTT-microtiter plate tetrazolinium cytotoxicity assay, KBV-1; assay type: cell-based
[8] = tested on: KBH1.0 + V (H033342r.); assay: MTT-microtiter plate tetrazolinium cytotoxicity assay, KBH1.0 + V; assay type: cell-based; conditions: continuous exposure 3-4 days
[9] = tested on: HELA (cervical); assay: MTT-microtiter plate tetrazolinium cytotoxicity assay, HELA; assay type: cell-based; conditions: continuous exposure 3-4 days
[10] = tested on: HCT116 (colon); assay: MTT-microtiter plate tetrazolinium cytotoxicity assay, HCT116; assay type: cell-based
[11] = tested on: ZR-75-1 (breast); assay: MTT-microtiter plate tetrazolinium cytotoxicity assay, ZR-75-1; assay type: cell-based
[12] = Homo sapiens, KB 3-1, continuous exposure 3-4 days
[13] = Homo sapiens, KB-V1, continuous exposure 3-4 days
[14] = Homo sapiens, HCT-116, continuous exposure 3-4 days
[15] = Homo sapiens, ZR-75-1, continuous exposure 3-4 days

Row | SMILES | Topoisomerase I-mediated DNA cleavage (REC, Relative Effective Concentration) [1] | IC50 [2] [µM] | IC50 [3] [µM] | IC50 [4] [µM] | IC50 [5] [µM] | melting point [°C] | IC50 [6, 12] [µM] | IC50 [7, 13] [µM] | IC50 [8] [µM] | IC50 ([9]; Homo sapiens, HeLa) [µM] | IC50 [10, 14] [µM] | IC50 [11, 15] [µM] | IC50 ([6]; continuous exposure 3-4 days) [µM] | IC50 ([7]; continuous exposure 3-4 days) [µM] | IC50 [9] [µM] | IC50 ([10]; continuous exposure 3-4 days) [µM] | IC50 ([11]; continuous exposure 3-4 days) [µM]
1 | COc1cc2ccc3c4cc(OC)c(OC)cc4nnc3c2cc1OC [Compound 19, 2,3,8,9-Tetramethoxy-dibenzo[c,h]cinnoline] | >100 | 10 | > 10 | 10 | 20 | – | – | – | – | – | – | – | – | – | – | – | –
2 | COc1cc2ccc3c4cc(OCc5ccccc5)c(OC)cc4nnc3c2cc1OC [Compound 42, 9-Benzyloxy-2,3,8-trimethoxydibenzo[c,h]cinnoline] | – | 38 | 61 | > 100 | 40 | 244 to 246 | – | – | – | – | – | – | – | – | – | – | –
3 | COc1ccc2c(ccc3c4cc5c(cc4nnc23)OCO5)c1 [Compound 43, 2-Methoxy-8,9-methylenedioxydibenzo[c,h]cinnoline] | – | > 100 | 52 | 38 | 30 | 258 to 260 | – | – | – | – | – | – | – | – | – | – | –
4 | COc1cc2ccc3c4cc5c(cc4nnc3c2cc1OC)OCO5 [Compound 14, 2,3-Dimethoxy-8,9-methylenedioxy-dibenzo[c,h]cinnoline] | 0.01 | 0.06 | 6 | 0.06 | 3 | – | 0.07 | 0.08 | 0.06 | 0.05 | 0.035 | 0.04 | – | – | – | – | –
5 | COc1ccc2c(c1)nnc1c3cc(OC)c(OC)cc3ccc21 [Compound 60, 2,3,8-Trimethoxydibenzo[c,h]cinnoline] | 2 | 2 | 4 | 1.9 | 2.5 | 244 to 246 | – | – | – | – | – | – | – | – | – | – | –
6 | COc1ccc2ccc3c4cc5c(cc4nnc3c2c1)OCO5 [Compound 44, 3-Methoxy-8,9-methylenedioxydibenzo[c,h]cinnoline] | – | 0.5 | 1.3 | 43 | 0.9 | 259 to 261 | – | – | – | – | – | – | – | – | – | – | –
7 | CC[C@]1(O)C[C@@H]2CN(CCc3c([nH]c4ccccc34)[C@@](C(=O)OC)(c3cc4c(cc3OC)N(C)[C@H]3[C@@](O)(C(=O)OC)[C@H](OC(C)=O)[C@]5(CC)C=CCN6CC[C@]43[C@@H]65)C2)C1 [VBS, Vinblastine] | – | – | – | – | – | – | 0.003 | 0.4 | 0.0022 | 0.002 | 0.003 | 0.003 | – | – | – | – | –
8 | CCOc1ccc(-c2nc3ccc(-c4nc5ccc(N6CCN(C)CC6)cc5[nH]4)cc3[nH]2)cc1 [HO33342] | – | – | – | – | – | – | – | – | > 10 | – | – | – | 0.25 | 3 | 0.6 | 0.22 | 0.06
9 | CC[C@@]1(O)C(=O)OCc2c1cc1n(c2=O)Cc2cc3ccccc3nc2-1 [CPT] | – | – | – | – | – | – | – | – | 0.007 | – | – | – | 0.006 | 0.006 | 0.004 | 0.003 | 0.004
10 | COc1cc2nnc3c4cc(OC)c(OC)cc4ccc3c2cc1O [Compound 34, 9-Hydroxy-2,3,8-trimethoxydibenzo[c,h]cinnoline] | – | > 100 | > 100 | > 100 | > 100 | – | – | – | – | – | – | – | – | – | – | – | –
11 | COc1cc2ccc3c4ccccc4nnc3c2cc1OC [Compound 6, 2,3-Dimethoxy-dibenzo[c,h]cinnoline] | 5 | 3 | 10 | 3 | 3 | – | 6 | 4 | 5 | 6 | 3.2 | 4 | – | – | – | – | –
12 | COc1ccc2nnc3c4cc(OC)c(OC)cc4ccc3c2c1 [Compound 61, 2,3,9-Trimethoxydibenzo[c,h]cinnoline] | 10 | 4 | 31 | 3 | 6 | 215 to 217 | – | – | – | – | – | – | – | – | – | – | –
